Laboratory results from article PMC2757673, “Protein Misfolding as an Underlying Molecular Defect in Mucopolysaccharidosis III Type C” (PLoS ONE, 2009).
Counter-ions that a name gives are not always drawn.

What was measured:
[1] = target: T1, HGSNAT (heparan sulfate acetyl-CoA: α-glucosaminide N-acetyltransferase), HGSNAT-TAP (Homo sapiens, UniProt Q68CP4); test: fluorogenic N-acetyltransferase assay, Lineweaver-Burk plot, partially purified (streptavidin resin) enzyme; assay type: biochemical; conditions: acetyl-CoA co-substrate, 4MU-βGlcN 0.05-2.0 mM, McIlvain buffer pH 5.7, 37°C, 18 h
T1 construct: transient expression in COS-7 cells; homogenate or streptavidin-resin partially purified; ~77 kDa
T1 sequence (Q68CP4 1-663): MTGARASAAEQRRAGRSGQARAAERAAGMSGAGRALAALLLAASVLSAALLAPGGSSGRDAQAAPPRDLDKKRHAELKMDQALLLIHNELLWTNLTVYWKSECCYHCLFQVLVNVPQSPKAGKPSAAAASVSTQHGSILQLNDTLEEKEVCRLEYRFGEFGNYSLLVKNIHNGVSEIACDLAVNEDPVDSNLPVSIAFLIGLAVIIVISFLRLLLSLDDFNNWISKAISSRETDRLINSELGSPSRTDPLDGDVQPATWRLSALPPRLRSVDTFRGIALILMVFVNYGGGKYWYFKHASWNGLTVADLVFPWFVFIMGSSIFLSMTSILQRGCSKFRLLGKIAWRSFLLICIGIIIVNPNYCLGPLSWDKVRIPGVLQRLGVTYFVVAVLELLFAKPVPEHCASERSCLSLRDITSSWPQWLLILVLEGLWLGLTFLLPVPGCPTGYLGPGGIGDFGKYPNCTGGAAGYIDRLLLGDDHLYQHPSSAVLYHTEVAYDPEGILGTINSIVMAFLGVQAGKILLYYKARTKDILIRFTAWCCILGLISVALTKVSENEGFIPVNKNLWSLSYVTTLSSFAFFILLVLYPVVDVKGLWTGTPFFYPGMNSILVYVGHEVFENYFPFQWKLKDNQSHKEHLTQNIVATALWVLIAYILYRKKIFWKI

[2] = target: T1, HGSNAT (heparan sulfate acetyl-CoA: α-glucosaminide N-acetyltransferase), HGSNAT-TAP; test: fluorogenic N-acetyltransferase assay, Dixon plot, homogenate of transfected COS-7 cells; assay type: biochemical; conditions: competitive; 4MU-βGlcN 0.0375-1.5 mM, 2 mM acetyl-CoA, McIlvain buffer pH 5.7, 37°C, 3 h

Compound	KM [1]	Ki [2] [µM]
Cc1cc(=O)oc2cc(O[C@@H]3O[C@H](CO)[C@@H](O)[C@H](O)[C@H]3N)ccc12 [4MU-βGlcN, 4-methylumbelliferyl β-D-glucosaminide]	Lineweaver-Burk plot of substrate dependance for partially purified HGSNAT wild-type and P237Q and V481L mutants	
N[C@H]1C(O)O[C@H](CO)[C@@H](O)[C@@H]1O (stereo partly drawn) [D-(+)-glucosamine hydrochloride]		280
